Laboratory results from ChEMBL document CHEMBL3826875, “2,8-Disubstituted-1,6-Naphthyridines and 4,6-Disubstituted-Isoquinolines with Potent, Selective Affinity for CDK8/19” (ACS Med Chem Lett, 2016).

Species: Mus musculus
Test: not given
Conditions: SW-620, 5 mg/kg
In the case of COC1CN(C(=O)c2ccc3c(N)ncc(-c4ccc(-c5cnn(C)c5)cc4)c3n2)C1, the inhibition was “tde”.

Test system: not listed separately
Test: in vitro
Conditions: human, Caco-2
For Cn1cc(-c2ccc(-c3cnc(N)c4ccc(C(=O)N5CC(F)(F)C5)nc34)cc2)cn1, the Papp A→B at 2 h, 1 µM was 23.9 ×10⁻⁶ cm/s.
COC1(C)CN(C(=O)c2ccc3c(N)ncc(-c4ccc(-c5cnn(C)c5)cc4)c3c2)C1 showed a Papp A→B at 2 h, 1 µM of 25.2 ×10⁻⁶ cm/s.
Cn1cc(-c2ccc(-c3cnc(N)c4ccc(C(=O)N5CCC5)nc34)cc2)cn1 showed a Papp A→B at 2 h, 1 µM of 42.6 ×10⁻⁶ cm/s.
COC1(C)CN(C(=O)c2ccc3c(N)ncc(-c4ccc(-c5cnn(C)c5)cc4)c3n2)C1 gave a Papp A→B at 2 h, 1 µM of 40.1 ×10⁻⁶ cm/s.
For Cn1cc(-c2ccc(-c3cnc(N)c4ccc(C(=O)N5CCC5)cc34)cc2)cn1, the Papp A→B at 2 h, 1 µM was 27.2 ×10⁻⁶ cm/s.
Molecule Cn1cc(-c2ccc(-c3cnc(N)c4ccc(C(=O)N5CCOCC5)nc34)cc2)cn1 has a Papp A→B at 2 h, 1 µM of 34 ×10⁻⁶ cm/s.
Cn1cc(-c2ccc(-c3cnc(N)c4ccc(C(=O)N5CC(C)(F)C5)nc34)cc2)cn1 showed a Papp A→B at 2 h, 1 µM of 27.6 ×10⁻⁶ cm/s.
Cn1cc(-c2ccc(-c3cnc(N)c4ccc(C(=O)N5CC(C)(F)C5)cc34)cc2)cn1 gave a Papp A→B at 2 h, 1 µM of 25.8 ×10⁻⁶ cm/s.
With Cn1cc(-c2ccc(-c3cnc(N)c4ccc(C(=O)N5CCNCC5)nc34)cc2)cn1 the Papp A→B at 2 h, 1 µM was 0.96 ×10⁻⁶ cm/s.
Cn1cc(-c2ccc(-c3cnc(N)c4ccc(N5CCOC5=O)cc34)cc2)cn1 gave a Papp A→B at 2 h, 1 µM of 20.6 ×10⁻⁶ cm/s.
With Cn1cc(-c2ccc(-c3cnc(N)c4ccc(C(=O)NC5CC5)cc34)cc2)cn1 the Papp A→B at 2 h, 1 µM was 32.5 ×10⁻⁶ cm/s.
With COC1CN(C(=O)c2ccc3c(N)ncc(-c4ccc(-c5cnn(C)c5)cc4)c3n2)C1 the Papp A→B at 2 h, 1 µM was 28.6 ×10⁻⁶ cm/s.
In the case of Cn1cc(-c2ccc(-c3cnc(N)c4ccc(C(=O)N5CC(F)(F)C5)cc34)cc2)cn1, the Papp A→B at 2 h, 1 µM was 39.7 ×10⁻⁶ cm/s.
